{"source": "paper PMC9966338", "about": "“Inhibitory Potential of α-Amylase, α-Glucosidase, and Pancreatic Lipase by a Formulation of Five Plant Extracts: TOTUM-63” (International Journal of Molecular Sciences, 2023)", "key": {"[1]": {"system": "α-amylase", "parameters": "method as in PMID 30050443", "details": "based on IC50 values; cited from earlier work"}, "[2]": {"target": "T1, α-Glucosidase (maltase from Saccharomyces cerevisiae) (Saccharomyces cerevisiae, UniProt P53341)", "T1 construct": "purchased Merck/Sigma-Aldrich", "T1 sequence (P53341 whole entry)": "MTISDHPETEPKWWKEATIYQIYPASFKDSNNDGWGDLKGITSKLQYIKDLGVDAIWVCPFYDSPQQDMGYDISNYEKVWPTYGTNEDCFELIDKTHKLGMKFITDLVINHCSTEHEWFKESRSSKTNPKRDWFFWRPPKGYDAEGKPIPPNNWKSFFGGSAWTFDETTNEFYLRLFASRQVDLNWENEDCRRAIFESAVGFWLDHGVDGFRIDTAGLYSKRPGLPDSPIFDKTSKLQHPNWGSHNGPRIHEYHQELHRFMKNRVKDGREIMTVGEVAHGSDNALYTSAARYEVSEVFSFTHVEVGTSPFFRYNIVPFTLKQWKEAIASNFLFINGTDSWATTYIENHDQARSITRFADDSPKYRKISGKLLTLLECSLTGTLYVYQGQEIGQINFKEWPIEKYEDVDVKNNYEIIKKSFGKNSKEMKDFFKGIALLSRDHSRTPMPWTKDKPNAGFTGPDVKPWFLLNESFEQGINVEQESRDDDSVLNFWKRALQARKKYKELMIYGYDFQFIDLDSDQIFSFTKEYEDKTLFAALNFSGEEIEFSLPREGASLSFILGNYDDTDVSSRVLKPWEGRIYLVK", "assay": "α-Glucosidase inhibition kinetics (Lineweaver–Burk, SigmaPlot fit)", "format": "biochemical", "description": "α-glucosidase inhibition kinetics was investigated in vitro using the method described in Section 4.2.1. Inhibition models were determined by analysis of the Lineweaver–Burk plots using four concentrations of substrate and four concentrations of test products (including a “0”, without inhibitor). All initial rates were fitted to all enzymatic kinetic models with one substrate and one inhibitor provided by the Enzyme Kinetics Module of Sigma Plot 12 (Systat Software Inc., San Jose, CA, USA), using non-linear least-square regression models to determine the inhibition model and calculate the inhibitory constant (Ki).\nEquations (2) and (3) (below) were used for data analysis and corresponded to the inhibition models that best fitted our data according to the SigmaPlot software 12 (Systat Software Inc., San Jose, CA, USA) [73]. […] Ki’ corresponds to the second inhibitor dissociation constant because, in a mixed model, the constants for E + I ↔ EI and ES + I ↔ ESI are different. Factor α, given by SigmaPlot (Systat Software Inc., San Jose, CA, USA), represents the equilibrium between Ki’ and Ki. (2) v =Vmax/1+(Km/[S])×(1+[I]/Ki) (3) v =Vmax/(1+[I]/Ki^’)+Km/[S]×(1+[I]/Ki)"}, "[3]": {"target": "T2, α-glucosidase (Saccharomyces cerevisiae, UniProt P53341)", "T2 construct": "purchased Merck/Sigma-Aldrich", "T2 sequence (P53341 whole entry)": "as above", "assay": "Interactions with α-glucosidase by fluorescence spectrum changes", "format": "binding", "details": "excitation 285 nm, emission 320–440 nm", "method": "Potassium phosphate buffer (0.1 M, pH 6.8) was used as the reaction buffer. The final α-glucosidase concentration in the wells was 1.275 mg/mL. For each microplate well, 20 µL of test product in a 50:50 (v:v) water:ethanol mixture (or 20 µL of this solvent mixture for the controls without products), 100 µL of α-glucosidase in buffer (or 100 µL of buffer for the blanks), and 40 µL of buffer were incubated at 25 °C in a microplate reader for 5 min. Then, fluorescence was measured at an excitation of 285 nm and an emission scan ranging from 320 nm to 440 nm."}, "[4]": {"system": "α-glucosidase", "details": "cited from earlier work"}, "[5]": {"target": "T1, α-Glucosidase (maltase from Saccharomyces cerevisiae)", "assay": "biochemical", "format": "biochemical", "text": "Chrysanthellin B was purchased from Extrasynthese (Genay, France). 2-(N-morpholino)-ethanesulfonic acid (MES) buffer was purchased from ThermoFisher Scientific (Waltham, Massachusetts, USA). NaN3 was obtained from Carlo Erba Reagents (Val-de-Reuil, France). Pure water was obtained using an Evoqua ultra-pure water production system (Water Technologies, Günzburg, Germany). The RED-NHS protein labeling kit was from NanoTemper Technologies (Munich, Germany).\nα-Glucosidase hydrolytic activity was assessed by monitoring the conversion of p-nitrophenyl-α-D-glucopyranoside (PNPg) into p-nitrophenol (PNP). PNP levels were quantified at 405 nm. […] A series of PNP dilutions in buffer was used to generate the standard curve to convert PNP absorbance values into concentrations. The final α-glucosidase concentration corresponded to an activity of 30 µM of PNP/min for negative control without inhibitor. In each microplate well, 20 µL of test products diluted in a 50:50 (v:v) water:ethanol mixture (or 20 µL of this solvent mixture for the negative controls), 20 µL of α-glucosidase in buffer (or 20 µL of buffer for the blanks), and 100 µL of buffer were incubated in a microplate reader at 37 °C for 10 min. Then, 20 µL of PNPg substrate (2.5 mM in buffer) was added to each well to initiate the reaction. A FLUO Star Omega (BMG LabTech, Champigny sur Marne, France) 96-well microplate reader, thermostatically controlled at 37 °C, was used to measure the absorbance at 405 nm, every minute for 30 min. […] (1) % Relative activity=Residual activity/Negative control activity×100"}, "[6]": {"system": "lipase", "parameters": "method as in PMID 36105167", "details": "based on IC50 values; cited from earlier work"}}, "note": "Where two headings read alike, the source gives them in different places.", "data": [{"smiles": "O=C(/C=C/c1ccc(O)c(O)c1)O[C@@H]1C[C@](OC(=O)/C=C/c2ccc(O)c(O)c2)(C(=O)O)C[C@@H](O)[C@H]1O", "note": "[1,5-dicaffeoylquinic acid]", "values": [{"measurement": "inhibitory activity on α-amylase, times higher than acarbose", "setting": "[1]", "value": 6.2, "unit": "times"}]}, {"smiles": "O=C(/C=C/c1ccc(O)c(O)c1)O[C@@H]1[C@H](O)C[C@@](O)(C(=O)O)C[C@H]1OC(=O)/C=C/c1ccc(O)c(O)c1", "note": "[3,4-dicaffeoylquinic acid]", "values": [{"measurement": "inhibitory activity on α-amylase, times higher than acarbose", "setting": "[1]", "value": 7.2, "unit": "times"}]}, {"smiles": "O=C(/C=C/c1ccc(O)c(O)c1)O[C@@H]1CC(O)(C(=O)O)C[C@@H](OC(=O)/C=C/c2ccc(O)c(O)c2)C1O", "note": "(stereo partly drawn) [3,5-dicaffeoylquinic acid]", "values": [{"measurement": "inhibitory activity on α-amylase, times higher than acarbose", "setting": "[1]", "value": 9.4, "unit": "times"}]}, {"smiles": "O=C(/C=C/c1ccc(O)c(O)c1)O[C@H]1[C@H](O)C[C@](O)(C(=O)O)C[C@H]1OC(=O)/C=C/c1ccc(O)c(O)c1", "note": "[4,5-dicaffeoylquinic acid]", "values": [{"measurement": "inhibitory activity on α-amylase, times higher than acarbose", "setting": "[1]", "value": 11.4, "unit": "times"}]}, {"smiles": "C[C@H]1O[C@H](O[C@H]2[C@H](O)[C@@H](O)[C@@H](O[C@H]3[C@H](O)[C@@H](O)C(O)O[C@@H]3CO)O[C@@H]2CO)[C@H](O)[C@@H](O)[C@@H]1N[C@H]1C=C(CO)[C@@H](O)[C@H](O)[C@H]1O", "note": "(stereo partly drawn) [Acarbose, acarbose]", "values": [{"measurement": "Inhibition type", "setting": "[2]; best-fitting model", "value": "Competitive (full)"}, {"measurement": "Vmax", "setting": "[2]; α-glucosidase in the presence of the inhibitor", "value": 0.00182, "unit": "mM/min"}, {"measurement": "α-glucosidase fluorescence intensity with increasing concentrations", "setting": "[3]", "value": "less obvious effect"}]}, {"smiles": "O=C(/C=C/c1ccc(O)c(O)c1)O[C@@H]1C[C@](O)(C(=O)O)C[C@@H](O)[C@H]1O", "note": "[Chlorogenic acid]", "values": [{"measurement": "α-glucosidase inhibition mechanism", "setting": "[4]", "value": "mixed"}]}, {"smiles": "CC1OC(OC2C(O)COC(OC3C(C)OC(OC4C(OC(=O)C56CCC(C)(C)CC5C5=CCC7C8(C)CCC(OC9OC(CO)C(O)C(O)C9O)C(C)(CO)C8CCC7(C)C5(C)CC6O)OCC(O)C4O)C(O)C3O)C2O)C(O)C(O)C1O", "note": "(stereo not drawn) [Chrysanthellin B]", "values": [{"measurement": "inhibitory effect on α-glucosidase relative to acarbose", "setting": "[5]", "value": "five times lower"}, {"measurement": "IC50", "setting": "[5]; PNPg substrate, pH 6.8, 37 °C, read-out: IC50 α-Glucosidase (converted)", "value": 127, "unit": "µM"}]}, {"smiles": "O=c1cc(-c2ccc(O)c(O)c2)oc2cc(O)cc(O)c12", "note": "[Luteolin]", "values": [{"measurement": "IC50", "setting": "[5]", "value": 1.4, "unit": "µM"}, {"measurement": "α-glucosidase inhibition mechanism", "setting": "[4]", "value": "non-competitive"}]}, {"smiles": "CC1(C)CC[C@]2(C(=O)O)CC[C@]3(C)C(=CC[C@@H]4[C@@]5(C)CC[C@H](O)C(C)(C)[C@@H]5CC[C@]43C)[C@@H]2C1", "note": "[Oleanolic acid]", "values": [{"measurement": "inhibitory activity on α-glucosidase, times higher than acarbose", "setting": "[4]", "value": 162, "unit": "times"}]}, {"smiles": "C/C=C1/[C@H](O[C@@H]2O[C@H](CO)[C@@H](O)[C@H](O)[C@H]2O)OC=C(C(=O)OC)[C@H]1CC(=O)OCCc1ccc(O)c(O)c1", "note": "[Oleuropein]", "values": [{"measurement": "IC50", "setting": "[5]", "value": 5.74, "unit": "µM"}]}, {"smiles": "O=C(/C=C/C=C/c1ccc2c(c1)OCO2)N1CCCCC1", "note": "[Piperine]", "values": [{"measurement": "α-glucosidase inhibition mechanism", "setting": "[4]", "value": "mixed"}]}, {"smiles": "O=C(/C=C/c1ccc(O)c(O)c1)O[C@@H]1C[C@@](OC(=O)/C=C/c2ccc(O)c(O)c2)(C(=O)O)C[C@@H](O)[C@@H]1O", "note": "[cynarin]", "values": [{"measurement": "inhibitory activity on α-amylase, times higher than acarbose", "setting": "[1]", "value": 4.8, "unit": "times"}]}, {"smiles": "O=C1C[C@@H](c2ccc(O)c(O)c2)Oc2cc(O)cc(O)c21", "note": "[eriodictyol]", "values": [{"measurement": "lipase inhibitory activity relative to orlistat", "setting": "[6]", "value": "more than two times higher"}]}, {"smiles": "O=c1cc(-c2ccc(O)c(O)c2)oc2cc(O[C@@H]3O[C@H](CO)[C@@H](O)[C@H](O)[C@H]3O)cc(O)c12", "note": "[luteolin-7-O-glucoside]", "values": [{"measurement": "lipase inhibitory activity relative to orlistat", "setting": "[6]", "value": "more than two times higher"}]}]}
